Like-named read-outs stand apart in the source and are kept apart here.

In one test the target is T1, RIPK2 enzyme (Homo sapiens, UniProt O43353).
T1 construct: purchased Carna 09-128
Nature of the test: RIPK2 inhibition (ADP-Glo Kinase Assay). Conditions: RIPK2 5 nM, ATP 150 μM, MBP substrate, read-out: RIPK2 IC50. It is filed as biochemical. In short, it runs like this:
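Human RIPK2 (5 nM) preincubated with compound 30 min at room temperature in 50 mM HEPES pH 7.5, 10 mM MgCl2, 2 mM DTT, 1 mM EGTA, 0.01% Brij-35, 0.05% BSA; native swine MBP as substrate. ADP formed quantified by ADP-Glo luminescence; percent inhibition relative to DMSO and no-enzyme controls.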
For orientation: ADP-Glo turns the ADP formed in a reaction into a luminescent signal.

In a further test the test system is human NOD2 signaling. Nature of the test: Inhibition of human NOD2 signaling in HEK-Blue-hNOD2 cells (L18-MDP stimulated, SEAP reporter). It is filed as cell-based. In short, it runs like this:
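HEK-Blue-hNOD2 cells (HEK293 with NOD2 and SEAP reporter), 12500/well, treated with 10-point 3-fold compound dilutions plus L18-MDP 0.5 ng/mL final, 24 h at 37 °C. Supernatant SEAP read with QUANTI-Blue after 3 h at 620 nm; IC50 by 4-parameter fit vs DMSO±L18-MDP controls.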

Test [1] addresses T2, RIPK2 and XIAP protein-protein interaction (Homo sapiens, UniProt O43353).
T2 construct: the N-terminus of full-length RIPK2 was appended with the HaloTag fusion protein; expressed in transfected cells; host or cells: HEK293T
Nature of the test: Inhibition of the interaction of RIPK2 with XIAP (NanoBRET in HEK293T cells). Conditions: for IC50: RIPK2 HaloTag / XIAP NanoLuc, read-out: NanoBRET Scaffolding IC50. The format is cell-based. The source says: An assay measuring the RIPK2 and XIAP protein-protein interaction was generated using the NanoBRET protein:protein interaction system (Promega) which measures the energy transfer from a bioluminescent protein donor (NanoLuc fusion protein) to a fluorescent protein acceptor (Halotag fusion protein). In this assay, the C-terminus of full-length XIAP was appended with the NanoLuc fusion protein and the N-terminus of full-length RIPK2 was appended with the HaloTag fusion protein. Assay medium consisted of Opti-MEM I reduced serum medium with no phenol red plus 4% heat inactivated FBS. Transfection reagents were combined in a microfuge tube as follows: 400 μL of assay medium, 8 μL of vector with N-terminus of RIPK2 HaloTag fusion protein (vector concentration at 1 μg/μL), 0.8 μL of vector with C-terminus of XIAP NanoLuc fusion protein (vector concentration at 1 μg/μL), and 24 μL of FuGENE HD transfection reagent (Promega, catalogue number E2312). […] Test compounds were prepared into a 10 mM DMSO solution and were serially diluted into 10 points using a 3-fold dilution in a 384 well plate using a TECAN EV0200.
Method: HEK293T cells were transfected with the RIPK2 HaloTag fusion and XIAP NanoLuc fusion vectors in suspension. […] Transfection reagents were pre-mixed and incubated at room temperature for 30 minutes. Then the total transfection reagent mixture was added dropwise to the 16 mL cell suspension and mixed gently. 40 μL of the cells and transfection reagent suspension was plated into a white 384 well plate and incubated at 37° C. in a CO2 incubator for 24 hours. […] Lastly, a 3× solution of NanoBRET Nano-Glo substrate in Opti-MEM I reduced serum media (no phenol red; 20 μL total volume) was added to each well and incubated for 2-3 minutes at room temperature. The plate was then measured using 460 nm filter (donor emission) and 618 nm filter (acceptor emission) in an EnVision multimode plate reader (PerkinElmer). The NanoBRET ratio values were determined by dividing the acceptor emission value by the donor emission value for each sample.
On the technique in general: BRET reads energy transfer from a luciferase to a nearby fluorophore.

[2] abbreviates: Homo sapiens, HEK-Blue hNOD2, HEK-Blue-hNOD2 cells, NOD2 ligand stimulation, SEAP reporter, read-out: hNOD2 IC50.
Where [3] appears, read: HEK-Blue-hNOD2 cells, NOD2 ligand stimulation, SEAP reporter, read-out: hNOD2 IC50.

T1 sequence (O43353 1-299 limits assumed): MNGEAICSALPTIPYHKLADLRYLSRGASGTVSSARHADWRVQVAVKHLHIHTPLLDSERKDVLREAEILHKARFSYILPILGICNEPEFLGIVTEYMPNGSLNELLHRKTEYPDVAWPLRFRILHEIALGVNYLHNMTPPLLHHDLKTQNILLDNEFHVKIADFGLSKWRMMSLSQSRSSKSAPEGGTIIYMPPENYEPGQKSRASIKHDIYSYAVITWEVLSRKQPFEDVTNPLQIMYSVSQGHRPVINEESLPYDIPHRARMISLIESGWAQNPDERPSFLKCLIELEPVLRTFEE
T2 sequence (O43353 whole entry, the tested form may be a part): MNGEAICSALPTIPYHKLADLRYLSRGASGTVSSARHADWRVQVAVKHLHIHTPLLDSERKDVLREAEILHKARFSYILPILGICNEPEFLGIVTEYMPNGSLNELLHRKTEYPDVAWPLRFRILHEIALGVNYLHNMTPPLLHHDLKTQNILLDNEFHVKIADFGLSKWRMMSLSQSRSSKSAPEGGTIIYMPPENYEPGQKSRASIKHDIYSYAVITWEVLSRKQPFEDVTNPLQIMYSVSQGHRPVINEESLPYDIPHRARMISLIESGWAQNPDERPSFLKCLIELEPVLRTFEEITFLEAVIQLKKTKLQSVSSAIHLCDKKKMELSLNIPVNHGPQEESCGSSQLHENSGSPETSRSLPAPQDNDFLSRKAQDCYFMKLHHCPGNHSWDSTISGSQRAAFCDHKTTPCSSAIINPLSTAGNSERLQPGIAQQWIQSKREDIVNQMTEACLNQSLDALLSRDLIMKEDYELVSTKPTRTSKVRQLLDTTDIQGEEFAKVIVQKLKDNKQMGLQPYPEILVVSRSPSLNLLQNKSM

As to `Cc1cc(CC(=O)Nc2cnn(C(C)(C)C)c2)c(F)cc1Oc1ccnc2ccc(S(=N)(=O)C3CC3)cc12` (single isomer, unassigned) [Compound 466, N-(1-(tert-butyl)-1H-pyrazol-4-yl)-2-(4-((6-(cyclopropane-sulfonimidoyl)quinolin-4-yl)oxy)-2-fluoro-5-methylphenyl) acetamide], the results for the IC50 (at RIPK2 enzyme; with human NOD2 signaling (setting [2]); in test [1]) were below 2.5 nM, 2.5 nM and 48 nM, respectively.
`Cc1cc(CC(=O)Nc2cnn(C(C)(C)C)c2)c(F)cc1Oc1ccnc2ccc(S(=N)(=O)C3CC3)cc12` (single isomer, unassigned) [Compound 467, N-(1-(tert-butyl)-1H-pyrazol-4-yl)-2-(4-((6-(cyclopropane-sulfonimidoyl)quinolin-4-yl)oxy)-2-fluoro-5-methylphenyl) acetamide]: the results for the IC50 (on RIPK2 enzyme; in the test with human NOD2 signaling (setting [3]); in test [1]) were below 2.5 nM, 1.7 nM and 30.2 nM, respectively.
Regarding `[2H]C([2H])([2H])NC(=O)c1ccc2nccc(Oc3cc(F)c(CC(=O)Nc4cnn(C56CC(C5)C6)c4)cc3C([2H])([2H])[2H])c2c1` (single isomer, unassigned) [Compound 512, 4-(4-(2-((1-(bicyclo[1.1.1]pentan-1-yl)-1H-pyrazol-4-yl)amino)-2-oxoethyl)-5-fluoro-2-(methyl-d3)phenoxy)-N-(methyl-d3)quinoline-6-carboxamide], the IC50 at RIPK2 enzyme is below 2.5 nM; in the test with human NOD2 signaling (setting [2]), 2.4 nM; in test [1], 57.6 nM.
Consider `Cc1cc(CC(=O)Nc2cnn(C34CC(C3)C4)c2)ccc1Oc1ccnc2ccc(S(=N)(=O)C3CC3)cc12` (single isomer, unassigned) [Compound 529, N-(1-(bicyclo[1.1.1]pentan-1-yl)-1H-pyrazol-4-yl)-2-(4-((6-(cyclopropanesul-fonimidoyl)quinolin-4-yl)oxy)-3-methylphenyl) acetamide], for which the IC50 at RIPK2 enzyme was below 2.5 nM; in the test with human NOD2 signaling (setting [2]) it was 14.3 nM; in test [1], 75 nM.
With `Cc1cc(CC(=O)Nc2cnn(C34CC(C3)C4)c2)ccc1Oc1ccnc2ccc(S(=N)(=O)C3CC3)cc12` (single isomer, unassigned) [Compound 530, N-(1-(bicyclo[1.1.1]pentan-1-yl)-1H-pyrazol-4-yl)-2-(4-((6-(cyclopropanesul-fonimidoyl)quinolin-4-yl)oxy)-3-methylphenyl) acetamide], the results for the IC50 (at RIPK2 enzyme; with human NOD2 signaling (setting [3]); in test [1]) were below 2.5 nM, 21.5 nM and 94.3 nM, respectively.
As for `Cc1cc(CC(=O)Nc2cnn(C(C)(C)C)c2)ccc1Oc1ccnc2ccc(S(=N)(=O)C(C)C)cc12` (single isomer, unassigned) [Compound 547, N-(1-(tert-butyl)-1H-pyrazol-4-yl)-2-(3-methyl-4-((6-(propan-2-ylsulfonimidoyl)quinolin-4-yl)oxy)phenyl) acetamide], the IC50 at RIPK2 enzyme is below 2.5 nM; with human NOD2 signaling (setting [2]) it was 1.3 nM; in test [1], 153 nM.
Take `Cc1cc(CC(=O)Nc2cnn(C(C)(C)C)c2)ccc1Oc1ccnc2ccc(S(=N)(=O)C(C)C)cc12` (single isomer, unassigned) [Compound 548, N-(1-(tert-butyl)-1H-pyrazol-4-yl)-2-(3-methyl-4-((6-(propan-2-ylsulfonimidoyl)quinolin-4-yl)oxy)phenyl) acetamide]: the IC50 is below 2.5 nM at RIPK2 enzyme, 0.9 nM in the test with human NOD2 signaling (setting [3]) and 108 nM in test [1].
Take `Cc1cc(CC(=O)Nc2cnn(C(C)(C)C)c2)ccc1Oc1ccnc2ccc(S(=N)(=O)C3CCC3)cc12` (single isomer, unassigned) [Compound 551, N-(1-(tert-butyl)-1H-pyrazol-4-yl)-2-(4-((6-(cyclobutanesulf-onimidoyl)quinolin-4-yl)oxy)-3-methylphenyl) acetamide]: the IC50 is below 2.5 nM on RIPK2 enzyme, 1.7 nM with human NOD2 signaling (setting [2]) and 87.1 nM in test [1].
With `Cc1cc(CC(=O)Nc2cnn(C(C)(C)C)c2)ccc1Oc1ccnc2ccc(S(=N)(=O)C3CCC3)cc12` (single isomer, unassigned) [Compound 552, N-(1-(tert-butyl)-1H-pyrazol-4-yl)-2-(4-((6-(cyclobutane-sulfonimidoyl)quinolin-4-yl)oxy)-3-methylphenyl) acetamide], the IC50 was below 2.5 nM on RIPK2 enzyme, 1.7 nM with human NOD2 signaling (setting [3]) and 60.9 nM in test [1].
Take `[2H]C([2H])([2H])NC(=O)c1ccc2nccc(Oc3cc(F)c(CC(=O)Nc4cnn(C(C)(C)C)c4)c(F)c3C)c2c1` (single isomer, unassigned) [Compound 555, 4-(4-(2-((1-(tert-butyl)-1H-pyrazol-4-yl)amino)-2-oxoethyl)-3,5-difluoro-2-methylphenoxy)-N-(methyl-d3)quinoline-6-carboxamide]: the values for the IC50 (on RIPK2 enzyme; with human NOD2 signaling (setting [2]); in test [1]) were below 2.5 nM, 0.1 nM and 7.3 nM, respectively.
In the same order, the values of `[2H]C([2H])([2H])NC(=O)c1ccc2nccc(Oc3cc(F)c(CC(=O)Nc4cnn(C56CC(C5)C6)c4)cc3C)c2c1` (single isomer, unassigned) [Compound 563, 4-(4-(2-((1-(bicyclo[1.1.1]pentan-1-yl)-1H-pyrazol-4-yl)amino)-2-oxoethyl)-5-fluoro-2-methylphenoxy)-N-(methyl-d3)quinoline-6-carboxamide] are below 2.5 nM, 1.9 nM and 176 nM.
In the same order, the values of `CC(C)(C)n1cc(NC(=O)Cc2cc(Cl)c(Oc3ccnc4ccc(S(=O)(=O)C5CC5)cc34)cc2F)cn1` [Compound 464, N-(1-(tert-butyl)-1H-pyrazol-4-yl)-2-(5-chloro-4-((6-(cyclopropylsulfonyl)quinolin-4-yl)oxy)-2-fluorophenyl)acetamide] are below 2.5 nM, 0.5 nM and 7.5 nM.
In the case of `Cc1cc(CC(=O)Nc2cc(C(C)(C)C)[nH]n2)cc(F)c1Oc1ccnc2cc(F)c(C(N)=O)cc12` [Compound 617, 4-(4-(2-((5-(tert-butyl)-1H-pyrazol-3-yl)amino)-2-oxoethyl)-2-fluoro-6-methylphenoxy)-7-fluoroquinoline-6-carboxamide], the IC50 at RIPK2 enzyme was below 2.5 nM; in the test with human NOD2 signaling (setting [2]) it was 1.1 nM.
The corresponding values for `Cc1cc(CC(=O)Nc2cc(C(C)(C)C)[nH]n2)cc(C)c1Oc1ccnc2cc(F)c(C(N)=O)cc12` [Compound 618, 4-(4-(2-((5-(tert-butyl)-1H-pyrazol-3-yl)amino)-2-oxoethyl)-2,6-dimethylphenoxy)-7-fluoroquinoline-6-carboxamide] are below 2.5 nM and 0.3 nM.
In the same order, the values of `CC(C)(C)c1cc(NC(=O)Cc2ccc(Oc3ccnc4cc(F)c(C(N)=O)cc34)c(C(F)F)c2)n[nH]1` [Compound 619, 4-(4-(2-((5-(tert-butyl)-1H-pyrazol-3-yl)amino)-2-oxoethyl)-2-(difluoromethyl)phenoxy)-7-fluoroquinoline-6-carboxamide] are below 2.5 nM and 1.4 nM.
With `[2H]C([2H])([2H])C(n1cc(NC(=O)Cc2cc(C)c(Oc3ccnc4ccc(C(=O)NC)cc34)cc2F)cn1)(C([2H])([2H])[2H])C([2H])([2H])[2H]` [Compound 622, 4-(5-fluoro-2-methyl-4-(2-((1-(2-(methyl-d3)propan-2-yl-1,1,1,3,3,3-d6)-1H-pyrazol-4-yl)amino)-2-oxoethyl)phenoxy)-N-methylquinoline-6-carboxamide], the IC50 on RIPK2 enzyme was below 2.5 nM; in the test on human NOD2 signaling (setting [2]), 2 nM.
`CC(C)(C)S(=O)(=O)c1cc2c(Nc3ccc4scnc4c3)ncnc2cc1OCCOP(=O)(O)O` [GSK 2983559, reference compound]: the IC50 with human NOD2 signaling (Homo sapiens, HEK-Blue hNOD2, 24 h, HEK-Blue-hNOD2 cells, L18-MDP 0.5 ng/mL, 24 h, read-out: hNOD2 inhibition IC50) was above 10000 nM. Also, the “inhibition of the RIPK2 and XIAP protein-protein interaction” value in test [1] (NanoBRET) was “no inhibition”.

Source of the values: patent US12624018B1, “Inhibitors of RIPK2 and medical uses thereof” (Odyssey Therapeutics, Inc., priority 2022, dated 2026).
